In patent EP1733758A1, “Methods for administration of a farnesyl dibenzodiazepinone” (Ecopia Biosciences Inc., priority 2005, dated 2006):
Where “and” joins values, the source holds several entries; their conditions need not be identical. Identical values can stand only once. Like-named read-outs stand apart in the source and are kept apart here.

Legend:
[1] = Population pharmacokinetic analysis (NONMEM), rat; type: in vivo; conditions: Rat (IV+CIV)
Description: An analysis was performed to derive allometric equations for Formula I pharmacokinetic parameters using Formula I plasma concentration-time data from three species, including mouse, rat, and monkey, and to estimate human pharmacokinetic parameters from those allometric equations.
Plasma concentrations of Formula I were obtained from mice, rats, and monkeys following intravenous injection or continuous infusion. Formula I pharmacokinetic parameters in mice, rats, and monkeys were estimated using population pharmacokinetic analysis, a function of the software program NONMEM™ (version 5). Typical population pharmacokinetic parameters for Formula I in humans were extrapolated from allometric equations that were derived from pharmacokinetic parameters estimated in the three animal species.
A two-compartment model with a first-order elimination from the central compartment adequately described Formula I plasma concentration-time profiles following intravenous bolus injection (30 mg/kg) in mice and rats, 7-day continuous infusion in rats (50 to 170 mg/kg/day), and 14-day continuous infusion in monkeys (5 to 30 mg/kg/day).

[2] = Pharmacokinetics of 14-day continuous intravenous infusion in monkeys; type: in vivo, Cynomolgus monkeys; conditions: for Css / mean steady-state plasma concentration / T½z: 14-day CIV; for Css: average between 30h and 14 days; for Css / T½z: mean; for mean steady-state plasma concentration: between 30 h and 14 days; for T½z: calculated at the end of treatment; for plasma concentration: CIV 30 mg/kg/day
Description: Cynomolgus monkeys received continuous IV infusion over 14 days of Formula I at 5 mg/kg/day, 15 mg/kg/day, or 30 mg/kg/day. The drug was infused intravenously (24 hours/day) into the femoral vein at a dose rate of 2 ml/kg/hour for 14 consecutive days. Blood samples were removed from each monkey on Days 1, 2, 6, 10, and 15 of the treatment period. Monkeys were bled by venipuncture and samples were collected into tubes containing K2EDTA. On Day 1, samples were collected at 2, 6, and 12 hours after initiation of treatment. Additional samples were collected at 30 hours after the start of infusion (Day 2). On Days 6 and 10, samples were collected at approximately 6 hours after the bag changes. At the end of the 14 days of infusion, on Day 15, samples were collected at 1 hour prior to cessation of dose administration, and at 5 min, 30 min, 1 h, 2 h, 4 h, 8 h, and 24 h following cessation of dose administration.

[3] = Pharmacokinetics and tissue distribution after bolus IV, IP, SC and PO administration in mice; type: in vivo, female Crl: CD1 mice
Description: The compound of formula I was dissolved in ethanol (5%), Polysorbate 80 (15%), PEG 400 (5%) and dextrose (5%) at a final concentration of 6 mg/ml (IV, IP and SC administration). For oral administration, the compound of Formula I was solubilized in Chremophor® EL/ Ethanol (50%:50%) at a final concentration of 6 mg/ml. Prior to dosing, animals (female Crl: CD1 mice; 6 weeks of age, 22-24g) were weighed, randomly selected and assigned to the different treatment groups. The compound of Formula I was administered by the bolus intravenous (IV), bolus subcutaneous (SC), bolus intraperitoneal (IP), or oral (PO) route to the assigned animals. The dosing volume of Formula I was 5 mL per kg body weight. Animals were anesthetized prior to bleeding with 5% isoflurane. Blood was collected into microtainer tubes containing the anticoagulant K2EDTA by cardiac puncture from each of 4 animals per bleeding timepoint (2min, 5 min, 15 min, 30 min, 1 h, 2h, 4h and 8h). Following collection, the samples were centrifuged and the plasma obtained from each sample was recovered and stored frozen (at approximately - 80°C) pending analysis. At the 5 min and 30 min time points, the following organs were harvested from each animal: brain, lungs, skeletal muscle, fat tissue, kidneys, spleen, thymus and liver. Tissues were frozen (at approximately -80°C) pending analysis. Samples were analysed by LC/MS/MS.
Plasma values of the compound of Formula I falling below the limit of quantitation (LOQ) were set to zero. […] The following pharmacokinetic parameters were calculated: area under the plasma concentration versus time curve from time zero to the last measurable concentration time point (AUCO-t), area under the plasma concentration versus time curve extrapolated to infinity (AUCinf), maximum observed plasma concentration (Cmax), time of maximum plasma concentration (tmax), apparent first-order terminal elimination rate constant (kel), apparent first-order terminal elimination half-life will be calculated as 0.693/kel (t1/2). The systemic clearance (CL) of the compound of Formula I after intravenous administration was calculated using Dose/AUCinf. Pharmacokinetic parameters were calculated using Kinetica™ 4.1.1 (InnaPhase Corporation, Philadelphia, PA).

[4] = typical population PK parameter

SMILES: CC(C)=CCC/C(C)=C/CC/C(C)=C/CN1C(=O)c2cccc(O)c2Nc2c(O)cc(O)cc21 [Formula I, 10-farnesyl-4,6,8-trihydroxy-dibenzodiazepin-11-one]
- Q ([1]; WT 0.225 Kg): 0.016 L/h
- V1 ([1]; WT 0.225 Kg): 0.028 L
- V2 ([1]; WT 0.225 Kg): 0.053 L
- Ke [1, 4]: 8.651 h⁻¹
- Q [1, 4]: 1.16 mL/min/kg
- V1 [1, 4]: 0.126 L/kg
- V2 [1, 4]: 0.236 L/kg
- AUC increase between the groups ([2]; 15 mg/kg/day group versus 5 mg/kg/day group): 3.4 fold
- AUC higher than that of the middle dose group ([2]; 30 mg/kg/day group versus 15 mg/kg/day group): 4.7 fold
- Css ([2]; 5 mg/kg/day): 358 ng/mL and 358 ^b ng/mL
- mean steady-state plasma concentration ([2]; 5 mg/kg/day): ~0.8 µM
- T½z ([2]; 5 mg/kg/day): 12 h
- Css ([2]; 15 mg/kg/day): 1,173 ng/mL
- mean steady-state plasma concentration ([2]; 15 mg/kg/day): ~2.5 µM
- T½z ([2]; 15 mg/kg/day): 8.3 h
- Css ([2]; 30 mg/kg/day): 6,283 ng/mL
- T½z ([2]; 30 mg/kg/day): 8.1 h
- plasma concentration ([2]; Day 1): 2,814 ng/mL
- plasma concentration ([2]; Day 6): 4,354 ng/mL
- plasma concentration ([2]; Day 10): 6,855 ng/mL
- plasma concentration ([2]; day 15): 8,561 ng/mL
- plasma concentration ([3]; 30 mg/kg bolus IV, initial): 425000 nM
- peak concentration ([3]; IP bolus, plasma): 7.8 µM
- time peak concentration reached ([3]; IP bolus, plasma): 15 min
- tissue distribution ([3]; IV and IP bolus 30 mg/kg, 30 min): well distributed
- tissue levels compared with IP ([3]; SC bolus 30 mg/kg, 30 min): significantly lower
- peak concentration ([3]; SC bolus, plasma): 2.3 µM
- time peak concentration reached ([3]; SC bolus, plasma): 60 min
- bioavailability ([3]; female, Crl: CD1, mouse, plasma, PO 30 mg/kg compared to IV bolus administration, read-out: orally bioavailable): 5 to 8%
- half-life ([3]; female, Crl:CD1, mouse, bolus IV 30 mg/kg, plasma, read-out: t1/2 α): 4.7 min
- concentration at 8 h ([3]; female, Crl:CD1, mouse, plasma, 30 mg/kg bolus IV, by 8 hours, read-out: plasma concentration): ~100 nM
- concentration at 4 h ([3]; female, Crl:CD1, mouse, plasma, 30 mg/kg bolus IV, four hours after administration): 200 nM
- concentration at 1 h ([3]; female, Crl:CD1, mouse, plasma, 30 mg/kg bolus IV, within one hour): 1300 nM
- concentration at 8 h ([3]; female, Crl:CD1, mouse, plasma, 30 mg/kg, IP bolus, read-out: plasma concentration remained for up to 8 hours): ~950 nM
- concentration at 8 h ([3]; female, Crl:CD1, mouse, plasma, 30 mg/kg, SC bolus, read-out: plasma concentration remained for up to 8 hours): ~1800 nM
- time plasma concentration is maintained at therapeutically relevant levels ([3]; intraperitoneal and subcutaneous 30 mg/kg): over 8 hours
